Consider one molecule from paper PMC2878737 (Channels (Austin, Tex.), 2009).

The target of one experiment is NaV1.2 (Rattus norvegicus, UniProt P04775).
The next experiment concerns the target NaV1.2[F385C] (Rattus norvegicus, UniProt P04775, F385C). The note with it: cited from earlier work.

Chain of NaV1.2[F385C] (P04775 whole entry F385C, looked up): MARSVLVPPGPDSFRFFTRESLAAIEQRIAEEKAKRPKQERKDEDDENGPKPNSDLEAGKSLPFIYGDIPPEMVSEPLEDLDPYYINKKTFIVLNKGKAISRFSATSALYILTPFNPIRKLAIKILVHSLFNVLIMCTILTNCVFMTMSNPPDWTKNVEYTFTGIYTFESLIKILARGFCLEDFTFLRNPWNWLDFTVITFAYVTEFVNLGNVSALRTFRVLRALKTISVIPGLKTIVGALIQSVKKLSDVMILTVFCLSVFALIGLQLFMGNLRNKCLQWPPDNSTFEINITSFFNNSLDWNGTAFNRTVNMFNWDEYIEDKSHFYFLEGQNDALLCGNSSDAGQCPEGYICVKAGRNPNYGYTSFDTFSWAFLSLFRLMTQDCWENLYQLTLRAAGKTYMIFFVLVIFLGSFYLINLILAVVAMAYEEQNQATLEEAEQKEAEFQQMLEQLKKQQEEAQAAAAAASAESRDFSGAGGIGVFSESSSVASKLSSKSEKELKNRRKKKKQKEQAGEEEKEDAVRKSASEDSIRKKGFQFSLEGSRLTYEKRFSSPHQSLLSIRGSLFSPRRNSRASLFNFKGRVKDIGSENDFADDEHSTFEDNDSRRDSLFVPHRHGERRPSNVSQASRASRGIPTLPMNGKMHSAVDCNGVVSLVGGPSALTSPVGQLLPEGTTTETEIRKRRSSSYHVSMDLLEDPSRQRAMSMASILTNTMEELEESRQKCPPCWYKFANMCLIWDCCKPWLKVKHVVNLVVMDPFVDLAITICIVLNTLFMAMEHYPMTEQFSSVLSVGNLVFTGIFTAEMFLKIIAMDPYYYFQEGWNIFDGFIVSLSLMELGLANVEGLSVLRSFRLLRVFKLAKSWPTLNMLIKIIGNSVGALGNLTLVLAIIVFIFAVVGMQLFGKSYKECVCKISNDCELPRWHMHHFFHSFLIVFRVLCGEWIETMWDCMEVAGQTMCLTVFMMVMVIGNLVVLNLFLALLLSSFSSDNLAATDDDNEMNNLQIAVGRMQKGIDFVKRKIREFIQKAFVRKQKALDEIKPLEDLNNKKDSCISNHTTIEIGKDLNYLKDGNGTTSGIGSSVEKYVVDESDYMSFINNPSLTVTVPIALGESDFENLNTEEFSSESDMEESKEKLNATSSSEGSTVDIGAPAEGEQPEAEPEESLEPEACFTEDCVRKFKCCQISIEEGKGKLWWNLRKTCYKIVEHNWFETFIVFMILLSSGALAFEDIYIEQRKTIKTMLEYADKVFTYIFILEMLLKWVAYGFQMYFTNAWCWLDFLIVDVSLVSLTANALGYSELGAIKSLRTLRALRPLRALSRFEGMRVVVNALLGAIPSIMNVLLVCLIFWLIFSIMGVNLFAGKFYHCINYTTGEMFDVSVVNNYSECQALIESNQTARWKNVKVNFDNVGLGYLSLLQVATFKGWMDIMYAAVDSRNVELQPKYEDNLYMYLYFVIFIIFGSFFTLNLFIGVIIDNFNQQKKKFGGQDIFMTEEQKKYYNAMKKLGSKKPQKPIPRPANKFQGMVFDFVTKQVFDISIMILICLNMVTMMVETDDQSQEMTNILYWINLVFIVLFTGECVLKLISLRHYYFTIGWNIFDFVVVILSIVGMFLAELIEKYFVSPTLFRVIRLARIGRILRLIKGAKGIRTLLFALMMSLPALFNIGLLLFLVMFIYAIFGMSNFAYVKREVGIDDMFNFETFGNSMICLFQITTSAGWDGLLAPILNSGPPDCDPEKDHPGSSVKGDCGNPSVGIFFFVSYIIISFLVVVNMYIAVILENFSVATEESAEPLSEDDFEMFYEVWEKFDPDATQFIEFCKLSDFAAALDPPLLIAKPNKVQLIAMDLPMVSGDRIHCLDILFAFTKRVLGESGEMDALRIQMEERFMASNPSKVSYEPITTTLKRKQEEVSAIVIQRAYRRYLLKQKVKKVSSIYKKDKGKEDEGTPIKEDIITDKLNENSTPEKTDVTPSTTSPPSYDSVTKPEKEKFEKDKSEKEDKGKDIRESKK
Chain of NaV1.2 (P04775 whole entry, looked up): as the sequence (P04775 whole entry F385C, looked up) above, with C385F counted along it

`NC1=N[C@H](O)[C@H]2[C@H]3O[C@]4(O)O[C@@H]([C@@H](O)[C@@]2(N1)[C@@H]4O)[C@]3(O)CO` [TTX, Tetrodotoxin]: the “Plateau of block at saturating [toxin] (Langmuir fit)” value at NaV1.2 stood at 100%. For the same molecule, on NaV1.2[F385C], the “sensitivity of NaV1.2[F385C]” value is “insensitive”.
